The record followed here is patent publication US8076332B2, “N- (2-aminophenyl) benzamide derivative having urea structure” (Santen Pharmaceutical Co., Ltd., priority 2006, dated 2011).

The subject of this test is human trabecular meshwork cell line (TM-1 cells). As to the kind of experiment: Test for evaluation of effect of morphological change on trabecular meshwork cells (cell shape index, CSI). The format is cell-based. The conditions noted are these: final concentration 10 μM, incubation 24 hours, CSI=4π×(Cell Area)/(Cell Perimeter)^2, average per group, Control 0.730. On the procedure:
1. Test for Evaluation of Effect of Morphological Change on Trabecular Meshwork Cells
As a method for evaluating a cellular morphological change, an evaluation system using the cell shape index (hereinafter referred to as “CSI”) as an index has been reported in The Journal of Clinical Investigation, 103, 1141-1150 (1999). Therefore, according to the method described in the above document, an effect of morphological change of the present compounds on trabecular meshwork cells was evaluated.
A human trabecular meshwork cell line (hereinafter referred to as “TM-1 cells”) reported in Investigative Opthalmology & Visual Science, 43, 151-161 (2002) was used.
Culture medium 1: A reagent was prepared by adding fetal bovine serum (10%), L-glutamine (2 mM), amphotericin B (2.5 μg/mL), and gentamicin (25 μg/mL) to Dulbecco's modified Eagle medium (hereinafter referred to as “D-MEM”).
Culture medium 2: Fetal bovine serum (3%), L-glutamine (2 mM), amphotericin B (2.5 μg/mL), and gentamicin (25 μg/mL) were added to D-MEM.
Cell staining liquid: A mixed liquid of Calcein-AM (16 μM) and Hoechst 33342 (40 μM) was prepared by diluting a Calcein-AM solution (cytoplasmic staining reagent, manufactured by Dojindo Laboratories) and a Hoechst 33342 solution (nuclear staining reagent, manufactured by Dojindo Laboratories) with D-MEM containing L-glutamine (2 mM), amphotericin B (2.5 μg/mL), and gentamicin (25 μg/mL).
TM-1 cells subcultured at 37° C. in a 8% carbon dioxide gas atmosphere were treated with a trypsin/EDTA solution (0.05% trypsin and 0.53 mM tetrasodium ethylenediaminetetraacetate) at 24 hours before performing a drug treatment mentioned below and seeded on a 96-well culture plate. The culture medium 1 was used for the subculture of the cells. The culture medium 2 was used for the cell culture after seeding the cells on the plate.
A test compound was dissolved in dimethyl sulfoxide, whereby a 5 mM solution was prepared. Then, the resulting solution was diluted with the culture medium 2, whereby a 200 μM test compound solution was prepared.
It has been reported that Y-27632 which is a Rho kinase inhibitor induces a morphological change in trabecular meshwork cells in Investigative Ophthalmology & Visual Science, 42, 137-144 (2001). Therefore, Y-27632 (produced according to the method described in WO 90/05723) was used as a positive control, and dissolved in dimethyl sulfoxide in the same manner as the test compound, whereby a 5 mM solution was prepared, and then, the resulting solution was diluted with the culture medium 2, whereby a 200 μM positive control compound solution was prepared.
1) To a 96-well culture plate, a solution of TM-1 cells adjusted to a cell density of […] was added in an amount of 95 μL (1.5×10^4 cells) per well.
2) Incubation was performed at 37° C. in a 8% carbon dioxide gas atmosphere for 24 hours.
3) The test compound solution or positive control compound solution was added in an amount of 5 μL per well (the final concentration of the test compound or positive control compound was 10 μM). As a control, the culture medium 2 containing dimethyl sulfoxide (4%) was added in an amount of 5 μL per well.
4) Incubation was performed at 37° C. in a 8% carbon dioxide gas atmosphere for 24 hours.
5) The cell staining liquid was added in an amount of 10 μL per well.
6) Incubation was performed at 37° C. in a 8% carbon dioxide gas atmosphere for 1 hour to stain the cells.
7) A 37% formaldehyde solution was added in an amount of 10 μL per well.
8) Incubation was performed at room temperature for 1 hour to fix the cells.
9) Washing with phosphate-buffered saline was performed.
10) Using Array Scan Vti HCS reader (manufactured by Cellomics), images of stained cells magnified with a 20 times objective lens were captured in 80 fields (10 fields×8 wells) per test compound addition group.
11) CSI was calculated for each cell and an average value was obtained for each test compound addition group. […]
The molecule `CN(C)c1ccc(NC(=O)N(CCO)Cc2ccc(C(=O)Nc3ccccc3N)cc2)cc1` [Compound 1-47, N-(2-Aminophenyl)-4-[3-(4-dimethylaminophenyl)-1-(2-hydroxyethyol)ureidomethyl] benzamide] showed a CSI of 0.613.

Molecule `Nc1ccccc1NC(=O)c1ccc(CN(CCO)C(=O)NCCc2ccccc2)cc1` [Compound 1-49, N-(2-Aminophenyl)-4-[1-(2-hydroxyethyl)-3-phenylethyl-ureidomethyl]benzamide] displayed a CSI of 0.630.

Regarding `CCN1CCCC1CN(Cc1ccc(C(=O)Nc2ccccc2N)cc1)C(=O)Nc1ccc2c(c1)OCCO2` (stereo not drawn) [Compound 1-50, N-(2-Aminophenyl)-4-[3-(2,3-dihydrobenzo[1,4]dioxin-6-yl)-1-(1-ethylpyrrolidin-2-ylmethyl)ureidomethyl] benzamide], the CSI is reported as 0.617.

On to `CN(C)CCCCN(Cc1ccc(C(=O)Nc2ccccc2N)cc1)C(=O)Nc1ccc(N(C)C)cc1` [Compound 1-53, N-(2-Aminophenyl)-4-[1-(4-dimethylaminobutyl)-3-(4-dimethylaminoiphenyl)ureido-methyl]benzamide], for which the CSI is recorded as 0.538.

As for `COc1cccc(NC(=O)N(CCCN2CCOCC2)Cc2ccc(C(=O)Nc3ccccc3N)cc2)c1` [Compound 1-58, N-(2-Aminophenyl)-4-[3-(3-methoxyphenyl)-1-[3-(mor-pholin-4-yl)propyl]ureido-methyl]benzamide], the CSI was determined as 0.610.

As to `Nc1ccccc1NC(=O)c1ccc(CN(CCCN2CCOCC2)C(=O)Nc2ccc(OC(F)F)cc2)cc1` [Compound 1-60, N-(2-Aminophenyl)-4-[3-(4-difluoromethoxyphenyl)-1-[3-(morpholin-4-yl)propyl]ureidomethyl]benzamide], the CSI was 0.608.

`Nc1ccc(NC(=O)N(CCCN2CCOCC2)Cc2ccc(C(=O)Nc3ccccc3N)cc2)cc1` [Compound 1-66, N-(2-Aminophenyl)-4-[3-(4-aminophenyl)-1-[3-(mor-pholin-4-yl)propyl]ureidomethyl] benzamide] had a CSI of 0.624.

For the molecule `CN(C)CCCN(Cc1ccc(C(=O)Nc2ccccc2N)cc1)C(=O)Nc1cccc(OCc2ccccc2)c1` [Compound 1-76, N-(2-aminophenyl)-4-[3-(3-benzyloxyphenyl)-1-(3-dimethylaminopropyl)ureidomethyl]benzamide], the CSI was found to be 0.649.

In turn, `CN1CCN(CCN(Cc2ccc(C(=O)Nc3ccccc3N)cc2)C(=O)Nc2ccc3c(c2)OCCO3)CC1` [Compound 1-94, N-(2-Aminophenyl)-4-[3-(2,3-dihydrobenzo[1,4]dioxin-6-yl)-1-[2-(4-methylpiper-azin-1-yl)ethyl]ureidomethyl] benzamide] yielded a CSI of 0.595.

In turn, `CN1CCCC1CCN(Cc1ccc(C(=O)Nc2ccccc2N)cc1)C(=O)Nc1ccc(F)c(F)c1` (stereo not drawn) [Compound 1-97, N-(2-Aminophenyl)-4-[3-(3,4-difluorophenyl)-1-[2-(1-methylpyrrolidin-2-yl)-ethyl]ureidomethyl]benzamide] registered a CSI of 0.595.

For `CN(C)CCCN(Cc1ccc(C(=O)Nc2ccccc2N)cc1)C(=O)Nc1ccc(F)c([N+](=O)[O-])c1` [Compound 1-102, N-(2-Aminophenyl)-4-[1-(3-dimethylaminopropyl)-3-(4-fluoro-3-nitrophenyl)ureido-methyl]benzamide], the CSI is 0.538.

Regarding `CN(C)CCCN(Cc1ccc(C(=O)Nc2ccccc2N)cc1)C(=O)Nc1cccnc1` [Compound 1-104, N-(2-Aminophenyl)-4-[1-(3-dimethylaminopropyl)-3-(pyridin-3-yl)ureidomethyl]-benzamide], the CSI turned out to be 0.609.

Turning to `COc1ccc(N)c(NC(=O)c2ccc(CN(CCN(C)C)C(=O)Nc3ccc4c(c3)CCC4)cc2)c1` [Compound 1-107, N-(2-Amino-5-methoxyphenyl)-4-[1-(2-dimethylamino-ethyl)-3-(indan-5-yl)ureod-methyl]benzamide], the CSI came to 0.663.

`CN1CCN(CCN(Cc2ccc(C(=O)Nc3ccccc3N)cc2)C(=O)Nc2ccc(F)c(F)c2)CC1` [Compound 1-113, N-(2-Aminophenyl)-4-[3-(3,4-difluorophenyl)-1-[2-(4-methylpiperazin-1-yl)ethyl]-ureidomethyl]benzamide]: the CSI was found to be 0.585.

Turning to `CC1CCN(CCCN(Cc2ccc(C(=O)Nc3ccccc3N)cc2)C(=O)Nc2ccc3c(c2)OCCO3)CC1` [Compound 1-128, N-(2-Aminophenyl)-4-[3-(2,3-dihydrobenzo[1,4]dioxin-6-yl)-1-[3-(4-methylpiper-idin-1-yl)propyl]ureido-methyl]benzamide], the CSI turned out to be 0.554.

Molecule `Nc1ccccc1NC(=O)c1ccc(CN(CCCN2CCOCC2)C(=O)Nc2ccsc2)cc1` [Compound 1-134, N-(2-Aminophenyl)-4-[1-(3-(morpholin-4-yl)propyl]-3-(thiophen-3-yl)ureido-methyl]benzamide] registered a CSI of 0.580.

As to `Cc1cc(NC(=O)N(CCCN2CCOCC2)Cc2ccc(C(=O)Nc3ccccc3N)cc2)ccc1F` [Compound 1-135], the CSI is reported as 0.555.

As to `Nc1ccccc1NC(=O)c1ccc(CN(CCCN2CCOCC2)C(=O)Nc2ncc([N+](=O)[O-])s2)cc1` [Compound 1-165, N-(2-Aminophenyl)-4-[1-(3-(morpholin-4-yl)propyl]-3-(5-nitrothiazol-2-yl)ureido-methyl]benzamide], the CSI is recorded as 0.578.

With `Nc1ccccc1NC(=O)c1ccc(CN(CCCN2CCCC2)C(=O)Nc2ccc3c(c2)OCCO3)cc1` [Compound 1-169, N-(2-Aminophenyl)-4-[3-(2,3-dihydrobenzo[1,4]dioxin-6-yl)-1-[3-(pyrrolidin-1-yl)propyl]ureidomethyl]benz-amide], the CSI was 0.566.

With `COc1ccccc1NC(=O)N(CCCN(C)C)Cc1ccc(C(=O)Nc2ccccc2N)cc1` [Compound 2-3, N-(2-Aminophenyl)-4-[1-(3-dimethylaminopropyl)-3-(2-methoxyphenyl)ureidomethyl]benzamide], the CSI is recorded as 0.618.

Take `CCOC(=O)CNC(=O)N(CCCN(C)C)Cc1ccc(C(=O)Nc2ccccc2N)cc1` [Compound 2-4]: the CSI amounted to 0.664.

`CN(C)CCCN(Cc1ccc(C(=O)Nc2ccccc2N)cc1)C(=O)NC(C)(C)C` [Compound 2-5, N-(2-Aminophenyl)-4-[3-t-butyl-1-(3-dimethylaminopropyl)ureidomethyl]benzamide] registered a CSI of 0.570.

Molecule `CN(C)CCCN(Cc1ccc(C(=O)Nc2ccccc2N)cc1)C(=O)Nc1cccc(O)c1` [Compound 3-1, N-(2-Aminophenyl)-4-[1-(3-dimethylaminopropyl)-3-(3-hydroxyphenyl)ureidomethyl]benzamide] displayed a CSI of 0.616.

In the case of `C[C@@H](N)[C@H]1CC[C@H](C(=O)Nc2ccncc2)CC1` [Compound Y-27632, reference compound], the CSI is 0.600.
